# Measurements: patent publication US20230192644A1, “PIPERIDINE-2,6-DIONES AS SMALL MOLECULE DEGRADERS OF HELIOS AND METHODS OF USE” (DANA-FARBER CANCER INSTITUTE, INC., priority 2020, published 2023)
# Read-outs that look alike come from different tables or passages of the source.
# What was measured:
# Type in all cases: cell-based
# [1] = system: IKZF2; test: GFP-IKZF2 cellular degradation assay (eGFP fusion/mCherry reporter, Flip-In 293 cells); settings: Flip-In 293 cells stably expressing IKZF2 GFP fusion with mCherry reporter, 5 h
# Procedure: IKZF1A and IKZF2A were subcloned into mammalian pcDNA5/FRT Vector (Ampicillin and Hygromycin B resistant) modified to contain MCS-eGFP-P2A-mCherry. Stable cell lines expressing eGFP-protein fusion and mCherry reporter were generated using Flip-In 293 system. Plasmid (0.3 μg) and pOG44 (4.7 μg) DNA were preincubated in 100 μL of Opti-MEM™ I (Gibco™, Life Technologies™) media containing 0.05 mg/mL Lipofectamine™ 2000 (Invitrogen™) for 20 min and added to Flip-In 293 cells containing 1.9 mL of DMEM media (Gibco™, Life Technologies™) per well in a 6-well plate format (Falcon, 353046). Cells were propagated for 48 h and were then transferred into a 10 cm^2 plate (Corning, 430165) in DMEM media containing 50 μg/mL of Hygromycin B (REF 10687010, Invitrogen™) as a selection marker. Following 2-3 passage cycle, FACS (FACSAria™ II, BD) was used to enrich for cells expressing eGFP and mCherry.
# (§1) Cells stably expressing the IKZF1A, or IKZF2A GFP fusions with mCherry reporter were seeded at 30-50% confluency in 384-well plates with 50 μL FluoroBrite™ DMEM media (Thermo Fisher Scientific™ A18967) containing 10% FBS per well a day before compound treatment. Compound titrations were dispensed using a D300e Digital Dispenser (HP), normalized to 0.5% DMSO, and incubated with cells for 5 hours.
# (§2) The assay plate was imaged immediately using an Acumen High Content Imager (TTP Labtech) with 488 nm and 561 nm lasers in […] per well format. The resulting images were analyzed using CellProfiler (Carpenter et al., Genome Biol. 2006, 7:R100). A series of image analysis steps (‘image analysis pipeline’) was constructed. First, the red and green channels were aligned and cropped to target the middle of each well (to avoid analysis of heavily clumped cells at the edges), and a background illumination function was calculated for both red and green channels of each well individually and subtracted to correct for illumination variations across the 384-well plate from various sources of error. An additional step was then applied to the green channel to suppress the analysis of large auto fluorescent artifacts and enhance the analysis of cell specific fluorescence by way of selecting for objects under a given size, 30 A.U., and with a given shape, speckles. mCherry-positive cells were then identified in the red channel filtering for objects between 8-60 pixels in diameter and using intensity to distinguish between clumped objects. The green channel was then segmented into GFP positive and negative areas and objects were labeled as GFP positive if at least 40% of it overlapped with a GFP positive area. The fraction of GFP-positive cells/mCherry-positive cells in each well was then calculated, and the green and red images were rescaled for visualization. The concentrations that lead to half degradation at 5 h (DC50, 5h) were calculated using the nonlinear fit variable slope model (GraphPad Software).
# [2] = molecular target: T1, IKZF1 (Homo sapiens, UniProt Q13422); test: GFP-IKZF1 cellular degradation assay (eGFP fusion/mCherry reporter, Flip-In 293 cells)
# T1 construct: expressed in transfected cells
# Procedure: IKZF1A and IKZF2A were subcloned into mammalian pcDNA5/FRT Vector (Ampicillin and Hygromycin B resistant) modified to contain MCS-eGFP-P2A-mCherry. […] Following 2-3 passage cycle, FACS (FACSAria™ II, BD) was used to enrich for cells expressing eGFP and mCherry.
# as §1
# as §2, with “The resulting images were analyzed using CellProfiler (Carpenter et al., Genome Biol. 2006, 7:R100).” left out
# [3] = molecular target: T2, IKZF1 (Homo sapiens, UniProt Q13422+Q96SW2); test: HiBit-IKZF1 degradation assay in Molt4 cells
# T2 construct: knocked into the endogenous IKZF2 or IKZF1 locus of Molt4 cells; endogenous in cells; host or cells: Molt4 (CRISPR/Cas9 HiBit knock-in)
# Procedure: (§3) The HiBit tag was knocked into the endogenous IKZF2 or IKZF1 locus of Molt4 cells to generate a HiBit-IKZF2 or HiBit-IKZF1 fusion proteins via CRISPR/Cas9 gene editing. Cells were then treated with a 12 point concentration curve of the indicated compounds, and luminescence (corresponding to Helios abundance) was detected after 6 hours using the Nano-Glo® HiBit Lytic Detection system (Promega™). The concentration necessary to achieve 50% degradation (DC50) was calculated using Prism (GraphPad).
# [4] = molecular target: T3, IKZF2 (Homo sapiens, UniProt Q96SW2+Q9UKS7); test: HiBit-IKZF2 degradation assay in Molt4 cells
# T3 construct: knocked into the endogenous IKZF2 or IKZF1 locus of Molt4 cells; endogenous in cells; host or cells: Molt4 (CRISPR/Cas9 HiBit knock-in)
# Procedure: as §3
# [5] = Flip-In 293 cells stably expressing IKZF1 GFP fusion with mCherry reporter, 5 h; read-out: GFP IKZF1 DC50
# [6] = read-out: GFP IKZF1 DC50; Flip-In 293 cells stably expressing IKZF1 GFP fusion with mCherry reporter, 5 h
# [7] = read-out: IKZF1 DC50; Molt4 cells with endogenous HiBit-IKZF1 knock-in, 6 hours, Nano-Glo HiBit luminescence
# [8] = read-out: IKZF2 DC50; Molt4 cells with endogenous HiBit-IKZF2 knock-in, 6 hours, Nano-Glo HiBit luminescence
# T2 sequence (Q13422 whole entry): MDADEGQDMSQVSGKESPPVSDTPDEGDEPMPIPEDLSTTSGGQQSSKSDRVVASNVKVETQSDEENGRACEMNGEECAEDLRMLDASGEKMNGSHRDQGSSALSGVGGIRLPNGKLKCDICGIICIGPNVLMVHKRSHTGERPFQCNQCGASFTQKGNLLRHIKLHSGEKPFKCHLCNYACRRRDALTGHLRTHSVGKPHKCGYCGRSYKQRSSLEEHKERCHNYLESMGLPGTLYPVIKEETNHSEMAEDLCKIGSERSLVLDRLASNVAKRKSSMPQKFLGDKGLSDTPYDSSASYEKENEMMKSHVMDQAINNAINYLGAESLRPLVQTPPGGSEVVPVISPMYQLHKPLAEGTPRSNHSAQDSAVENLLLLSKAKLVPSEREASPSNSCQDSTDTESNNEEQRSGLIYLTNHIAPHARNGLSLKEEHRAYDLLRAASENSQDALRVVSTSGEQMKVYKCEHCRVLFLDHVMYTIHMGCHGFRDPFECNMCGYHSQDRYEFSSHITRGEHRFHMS
# T2 sequence (Q96SW2 whole entry): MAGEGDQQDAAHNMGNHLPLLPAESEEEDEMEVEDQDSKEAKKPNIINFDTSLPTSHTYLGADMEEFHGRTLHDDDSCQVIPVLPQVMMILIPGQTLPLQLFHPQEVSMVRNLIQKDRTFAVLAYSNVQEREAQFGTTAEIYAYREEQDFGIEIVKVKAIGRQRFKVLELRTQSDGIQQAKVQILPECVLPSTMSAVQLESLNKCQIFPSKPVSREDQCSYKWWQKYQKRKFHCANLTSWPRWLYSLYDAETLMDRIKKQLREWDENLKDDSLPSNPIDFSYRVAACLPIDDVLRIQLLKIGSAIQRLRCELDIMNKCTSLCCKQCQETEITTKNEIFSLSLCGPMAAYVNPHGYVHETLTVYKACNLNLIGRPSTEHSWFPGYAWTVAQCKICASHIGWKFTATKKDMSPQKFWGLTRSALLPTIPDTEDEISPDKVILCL
# T2 sequence (Q16531 whole entry partner): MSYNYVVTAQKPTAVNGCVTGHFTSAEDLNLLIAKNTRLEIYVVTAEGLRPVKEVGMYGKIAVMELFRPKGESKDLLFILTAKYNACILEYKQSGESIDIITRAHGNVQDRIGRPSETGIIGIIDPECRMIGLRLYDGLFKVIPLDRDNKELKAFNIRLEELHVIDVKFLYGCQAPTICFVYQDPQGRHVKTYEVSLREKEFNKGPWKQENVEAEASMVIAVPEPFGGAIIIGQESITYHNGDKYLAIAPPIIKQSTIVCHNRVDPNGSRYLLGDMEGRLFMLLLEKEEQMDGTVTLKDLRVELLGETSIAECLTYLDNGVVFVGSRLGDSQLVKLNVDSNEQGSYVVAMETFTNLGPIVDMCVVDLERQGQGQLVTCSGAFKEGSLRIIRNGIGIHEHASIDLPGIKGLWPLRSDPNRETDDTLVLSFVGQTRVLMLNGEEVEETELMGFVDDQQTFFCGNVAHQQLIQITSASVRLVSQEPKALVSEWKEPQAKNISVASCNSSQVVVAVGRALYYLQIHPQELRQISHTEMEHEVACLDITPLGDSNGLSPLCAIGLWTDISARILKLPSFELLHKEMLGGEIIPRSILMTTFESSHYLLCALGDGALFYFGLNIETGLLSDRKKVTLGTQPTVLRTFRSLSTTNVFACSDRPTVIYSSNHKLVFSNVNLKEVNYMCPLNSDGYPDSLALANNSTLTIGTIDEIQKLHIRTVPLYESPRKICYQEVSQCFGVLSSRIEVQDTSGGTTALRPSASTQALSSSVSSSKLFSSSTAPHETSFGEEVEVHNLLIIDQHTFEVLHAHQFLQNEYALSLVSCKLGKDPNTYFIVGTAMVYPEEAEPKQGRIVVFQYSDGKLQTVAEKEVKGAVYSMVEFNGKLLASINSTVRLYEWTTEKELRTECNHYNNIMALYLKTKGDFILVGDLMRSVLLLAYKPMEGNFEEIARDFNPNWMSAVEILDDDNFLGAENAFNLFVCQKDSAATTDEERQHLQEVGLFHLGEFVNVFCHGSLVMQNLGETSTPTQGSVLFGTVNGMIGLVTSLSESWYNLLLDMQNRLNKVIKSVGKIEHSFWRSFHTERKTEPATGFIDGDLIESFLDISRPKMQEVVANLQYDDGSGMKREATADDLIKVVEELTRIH
# T3 sequence (Q9UKS7 whole entry): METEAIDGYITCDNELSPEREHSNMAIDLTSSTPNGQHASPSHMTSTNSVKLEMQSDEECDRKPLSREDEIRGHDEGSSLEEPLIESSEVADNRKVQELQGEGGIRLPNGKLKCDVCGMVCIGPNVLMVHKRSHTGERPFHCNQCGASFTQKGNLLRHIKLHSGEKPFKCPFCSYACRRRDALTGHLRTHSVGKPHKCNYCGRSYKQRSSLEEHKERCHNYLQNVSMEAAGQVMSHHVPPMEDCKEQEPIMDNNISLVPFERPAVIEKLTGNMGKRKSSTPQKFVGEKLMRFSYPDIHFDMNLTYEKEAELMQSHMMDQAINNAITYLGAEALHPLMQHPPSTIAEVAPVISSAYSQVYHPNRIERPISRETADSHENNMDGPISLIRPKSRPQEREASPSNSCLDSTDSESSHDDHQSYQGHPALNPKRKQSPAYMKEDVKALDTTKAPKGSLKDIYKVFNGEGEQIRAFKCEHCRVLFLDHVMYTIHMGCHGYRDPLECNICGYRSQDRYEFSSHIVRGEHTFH
# T3 sequence (Q96SW2 whole entry): as the sequence (Q96SW2 whole entry) above
# T3 sequence (Q16531 whole entry partner): as the sequence (Q16531 whole entry partner) above
# T1 sequence (Q13422 83-213 isoform Q13422-7 limits assumed): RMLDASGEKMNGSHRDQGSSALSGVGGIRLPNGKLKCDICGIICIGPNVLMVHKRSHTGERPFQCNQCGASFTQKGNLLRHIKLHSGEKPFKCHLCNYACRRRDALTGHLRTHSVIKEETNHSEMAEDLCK
# T1 sequence (Q96SW2 whole entry partner, the tested form may be a part): as the sequence (Q96SW2 whole entry) above
# T1 sequence (Q16531 whole entry partner, the tested form may be a part): as the sequence (Q16531 whole entry partner) above
SMILES,DC50 [1] [nM],"DC50 [2, 5] [nM]",also measured
CC(CC(=O)Nc1cccnc1Cl)c1cccc(NC2=CC(=O)N(C3CCC(=O)NC3=O)C2=O)c1 (centres unmarked) [Compound 7],48,23,
CC(CC(=O)Nc1ccnc(Cl)c1)c1cccc(NC2=CC(=O)N(C3CCC(=O)NC3=O)C2=O)c1 (centres unmarked) [Compound 9],85,80,
O=C1CCC(N2C(=O)C=C(Nc3cccc(C4CC(C(=O)Nc5cccc(C(F)(F)F)c5)C4)c3)C2=O)C(=O)N1 (centres unmarked) [Compound 22],134,14,
O=C1CCC(N2C(=O)C=C(Nc3cccc([C@H]4CNCC4C(=O)Nc4cccc(C(F)(F)F)c4)c3)C2=O)C(=O)N1 (some centres unmarked) [Compound 23],101,38,
"Cc1ccc(NC(=O)CN(C)c2cccc(NC3=CC(=O)N(C4CCC(=O)NC4=O)C3=O)c2)cc1Cl (centres unmarked) [Compound 44, N-(3-chloro-4-methylphenyl)-2-[(3-{[1-(2,6-dioxopiperidin-3-yl)-2,5-dioxo-2,5-dihydro-1H-pyrrol-3-yl]amino}phenyl)(methyl)amino]acetamide]",6.9,3.7,
"CN(CCc1ccc(C(F)(F)F)c(Cl)c1)Cc1cccc(NC2=CC(=O)N(C3CCC(=O)NC3=O)C2=O)c1 (centres unmarked) [Compound 48, 3-(3-((-(((3-chloro-4-(trifluoromethyl)phenethyl)(methyl)amino)methyl)phenyl)amino)-2,5-dioxo-2,5-dihydro-1H-pyrrol-1-yl)piperidine-2,6-dione]",19,,"DC50 [2, 6]: 3.7 nM"
"CCC(NCCc1ccc(C(F)(F)F)c(Cl)c1)c1cccc(NC2=CC(=O)N(C3CCC(=O)NC3=O)C2=O)c1 (centres unmarked) [Compound 60, 3-(3-((3-(1-((3-chloro-4-(trifluoromethyl)phenethyl)-amino)propyl)phenyl)amino)-2,5-dioxo-2,5-dihydro-1H-pyrrol-1-yl)piperidine-2,6-dione]",6,,"DC50 [2, 6]: 18 nM; DC50 [3, 7]: 240 nM; DC50 [4, 8]: 42 nM"
"CC(C)(NCCc1ccc(C(F)(F)F)c(Cl)c1)c1cccc(NC2=CC(=O)N(C3CCC(=O)NC3=O)C2=O)c1 (centres unmarked) [Compound 66, 3-(3-((3-(2-((3-chloro-4-(trifluoromethyl)phenethyl)amino)propan-2-yl)phenyl)amino)-2,5-dioxo-2,5-dihydro-1H-pyrrol-1-yl)piperidine-2,6-dione]",1.2,,"DC50 [2, 6]: 1.1 nM; DC50 [3, 7]: 3.8 nM; DC50 [4, 8]: 2.3 nM"
"CC(C)(CCNc1ccc(C(F)(F)F)c(Cl)c1)c1cccc(NC2=CC(=O)N(C3CCC(=O)NC3=O)C2=O)c1 (centres unmarked) [Compound 80, 3-(3-((3-(4-((3-chloro-4-(trifluoromethyl)phenyl)amino)-2-methylbutan-2-yl)phenyl)amino)-2,5-dioxo-2,5-dihydro-1H-pyrrol-1-yl)piperidine-2,6-dione]",24,50,

# Further lines, with some results ahead:
DC50 [1] [nM],"DC50 [2, 5] [nM]",SMILES,also measured
17,10,CC(CC(=O)Nc1ccc(Cl)nc1)c1cccc(NC2=CC(=O)N(C3CCC(=O)NC3=O)C2=O)c1 (centres unmarked) [Compound 8],
8.8,39,Cc1ccc(NC(=O)CC2(c3cccc(NC4=CC(=O)N(C5CCC(=O)NC5=O)C4=O)c3)CCOCC2)cc1Cl (centres unmarked) [Compound 18],
4.4,2,Cc1ccc(NC(=O)C2CC2c2cccc(NC3=CC(=O)N(C4CCC(=O)NC4=O)C3=O)c2)cc1Cl (centres unmarked) [Compound 21],
13,5.8,CC(c1cccc(NC2=CC(=O)N(C3CCC(=O)NC3=O)C2=O)c1)N1CC(c2ccccc2)C1 (centres unmarked) [Compound 25],
8.9,2.8,CC(c1cccc(NC2=CC(=O)N(C3CCC(=O)NC3=O)C2=O)c1)N1CC(Cc2ccccc2)C1 (centres unmarked) [Compound 26],
19,6.4,CC(c1cccc(NC2=CC(=O)N(C3CCC(=O)NC3=O)C2=O)c1)N1CC(Oc2ccccc2)C1 (centres unmarked) [Compound 27],
2.2,50,"Cc1ccc(NC(=O)CC(c2cccc(NC3=CC(=O)N(C4CCC(=O)NC4=O)C3=O)c2)C(C)C)cc1Cl (centres unmarked) [Compound 30, N-(3-chloro-4-methylphenyl)-3-(3-((1-(2,6-dioxopiperidin-3-yl)-2,5-dioxo-2,5-dihydro-1H-pyrrol-3-yl)amino)phenyl)-4-methylpentanamide]",
9.2,6.8,CC(C)(NCc1cccc(C(F)(F)F)c1)c1cccc(NC2=CC(=O)N(C3CCC(=O)NC3=O)C2=O)c1 (centres unmarked) [Compound 64],
12,11,"CN(CCc1ccc(C(F)(F)F)c(Cl)c1)C(C)(C)c1cccc(NC2=CC(=O)N(C3CCC(=O)NC3=O)C2=O)c1 (centres unmarked) [Compound 67, 3-(3-((3-(2-((3-chloro-4-(trifluoromethyl)phenethyl)(methyl)amino)propan-2-yl)phenyl)-amino)-2,5-dioxo-2,5-dihydro-1H-pyrrol-1-yl)piperidine-2,6-dione]","DC50 ([3]; Molt4 cells with endogenous HiBit-IKZF1 knock-in, 6 hours, Nano-Glo HiBit luminescence; read-out: IKZF1 DC50): 47 nM; DC50 ([4]; Molt4 cells with endogenous HiBit-IKZF2 knock-in, 6 hours, Nano-Glo HiBit luminescence; read-out: IKZF2 DC50): 25 nM"
4.4,5.2,"CN(C)CC(CC(=O)Nc1ccc(C(F)(F)F)c(Cl)c1)c1cccc(NC2=CC(=O)N(C3CCC(=O)NC3=O)C2=O)c1 (centres unmarked) [Compound 73, N-(3-chloro-4-(trifluoromethyl)phenyl)-4-(dimethylamino)-3-(3-((1-(2,6-dioxopiperidin-3-yl)-2,5-dioxo-2,5-dihydro-1H-pyrrol-3-yl)amino)phenyl)butanamide]",
